Test results: patent publication US9932314B2, “Pyrazole compounds and their use as T-type calcium channel blockers” (IDORSIA PHARMACEUTICALS LTD, priority 2015, dated 2018)

Target: T1, voltage-dependent T-type calcium channel subunit alpha-1G (Cav3.2) (Homo sapiens, UniProt O95180)
T1 construct: expressed in transfected cells; host or cells: HEK293
Assay: FLIPR calcium flux assay, HEK293 cells recombinantly expressing Cav3.2
Type: cell-based
Settings: Cav3.2-channel, Fluo-4-AM, 3 min incubation, stimulation with 10 mM CaCl2
How it was run: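 HEK293 cells stably expressing human Cav3.2 were loaded with Fluo-4-AM. Compounds diluted in TEAC buffer (pH 7.2) were preincubated for 3 min, then Ca2+ entry was triggered by 10 mM final CaCl2. Inhibition curves were fitted sigmoidally to the area under the fluorescence trace.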

T1 sequence (O95180 whole entry): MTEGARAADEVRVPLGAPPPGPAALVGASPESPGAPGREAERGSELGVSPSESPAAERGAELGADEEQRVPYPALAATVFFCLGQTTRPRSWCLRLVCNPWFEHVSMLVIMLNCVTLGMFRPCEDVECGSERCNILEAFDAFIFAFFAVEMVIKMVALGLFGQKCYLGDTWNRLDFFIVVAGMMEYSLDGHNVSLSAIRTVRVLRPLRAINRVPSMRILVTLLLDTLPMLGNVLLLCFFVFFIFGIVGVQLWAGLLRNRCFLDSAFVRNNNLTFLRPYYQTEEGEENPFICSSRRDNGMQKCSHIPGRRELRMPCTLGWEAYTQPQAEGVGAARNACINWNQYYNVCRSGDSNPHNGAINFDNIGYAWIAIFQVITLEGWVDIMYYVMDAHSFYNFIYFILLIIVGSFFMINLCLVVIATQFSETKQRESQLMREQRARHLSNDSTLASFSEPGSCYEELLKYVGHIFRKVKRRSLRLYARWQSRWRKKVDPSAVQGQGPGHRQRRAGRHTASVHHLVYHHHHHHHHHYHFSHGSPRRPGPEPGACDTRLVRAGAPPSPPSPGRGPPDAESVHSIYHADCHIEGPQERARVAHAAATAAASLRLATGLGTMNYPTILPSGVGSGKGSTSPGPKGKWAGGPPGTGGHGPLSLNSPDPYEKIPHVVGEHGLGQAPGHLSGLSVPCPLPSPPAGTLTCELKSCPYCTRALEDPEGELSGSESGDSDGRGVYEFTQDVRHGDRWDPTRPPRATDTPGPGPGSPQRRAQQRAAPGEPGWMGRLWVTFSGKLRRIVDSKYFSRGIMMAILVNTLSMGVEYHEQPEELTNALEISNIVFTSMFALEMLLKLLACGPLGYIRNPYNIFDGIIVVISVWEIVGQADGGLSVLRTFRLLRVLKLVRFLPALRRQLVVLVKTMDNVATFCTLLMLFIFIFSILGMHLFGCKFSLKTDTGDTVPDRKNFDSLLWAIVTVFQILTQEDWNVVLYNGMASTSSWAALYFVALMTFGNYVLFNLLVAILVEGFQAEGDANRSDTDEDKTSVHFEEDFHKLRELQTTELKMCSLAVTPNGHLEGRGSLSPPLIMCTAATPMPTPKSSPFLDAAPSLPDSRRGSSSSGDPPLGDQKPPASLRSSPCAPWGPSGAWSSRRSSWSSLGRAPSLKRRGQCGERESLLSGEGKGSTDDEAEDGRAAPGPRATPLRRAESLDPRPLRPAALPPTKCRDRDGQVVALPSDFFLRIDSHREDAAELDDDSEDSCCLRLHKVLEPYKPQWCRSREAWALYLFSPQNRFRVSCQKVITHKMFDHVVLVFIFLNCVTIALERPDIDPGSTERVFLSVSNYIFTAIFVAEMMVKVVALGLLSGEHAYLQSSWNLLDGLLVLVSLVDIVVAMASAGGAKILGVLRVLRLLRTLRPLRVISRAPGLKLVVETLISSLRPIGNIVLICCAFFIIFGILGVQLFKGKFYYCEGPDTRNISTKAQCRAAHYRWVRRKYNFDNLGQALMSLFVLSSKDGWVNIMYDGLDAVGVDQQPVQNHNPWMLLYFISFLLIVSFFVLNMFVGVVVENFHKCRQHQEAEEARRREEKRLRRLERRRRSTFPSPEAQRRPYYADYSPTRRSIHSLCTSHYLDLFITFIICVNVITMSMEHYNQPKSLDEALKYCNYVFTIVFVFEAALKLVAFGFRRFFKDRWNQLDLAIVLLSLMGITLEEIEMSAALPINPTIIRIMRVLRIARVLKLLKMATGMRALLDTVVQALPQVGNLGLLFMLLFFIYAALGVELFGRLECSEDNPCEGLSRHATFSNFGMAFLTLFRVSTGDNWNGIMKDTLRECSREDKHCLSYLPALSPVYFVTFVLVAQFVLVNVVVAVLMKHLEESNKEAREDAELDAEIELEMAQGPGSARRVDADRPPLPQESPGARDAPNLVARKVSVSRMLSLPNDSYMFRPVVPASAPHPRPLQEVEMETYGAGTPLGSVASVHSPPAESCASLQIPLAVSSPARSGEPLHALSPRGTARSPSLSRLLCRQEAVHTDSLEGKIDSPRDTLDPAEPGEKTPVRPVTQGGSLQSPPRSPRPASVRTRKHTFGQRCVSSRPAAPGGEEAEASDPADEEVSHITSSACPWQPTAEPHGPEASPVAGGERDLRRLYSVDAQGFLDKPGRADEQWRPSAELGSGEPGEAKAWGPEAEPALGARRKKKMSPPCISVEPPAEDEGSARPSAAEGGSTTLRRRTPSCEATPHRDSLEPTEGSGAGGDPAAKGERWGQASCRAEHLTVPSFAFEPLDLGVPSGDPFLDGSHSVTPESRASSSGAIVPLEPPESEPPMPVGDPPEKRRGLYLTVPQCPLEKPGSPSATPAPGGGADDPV

Row | Structure (SMILES) | IC50 [nM]
1 | N#Cc1ccc(Cn2ccc(NC(=O)Cc3ccc(N4CC[C@@H](F)C4)cc3)n2)nc1 [Example 89, N-[1-(5-Cyano-pyridin-2-ylmethyl)-1H-pyrazol-3-yl]-2-[4-((R)-3-fluoro-pyrrolidin-1-yl)-phenyl]-acetamide] | 61
2 | O=C(Cc1ccc(N2CC[C@@H](F)C2)nc1)Nc1ccn(Cc2ccc(F)cc2)n1 [Example 141, N-[1-(4-Fluoro-benzyl)-1H-pyrazol-3-yl]-2-[6-((R)-3-fluoro-pyrrolidin-1-yl)-pyridin-3-yl]-acetamide] | 35
3 | O=C(Cc1ccc(N2CC[C@H](F)C2)cc1)Nc1ccn(Cc2ccc(F)cc2)n1 [Example 75, N-[1-(4-Fluoro-benzyl)-1H-pyrazol-3-yl]-2-[4-((S)-3-fluoro-pyrrolidin-1-yl)-phenyl]-acetamide] | 5.2
4 | CC(C)c1ccc(CC(=O)Nc2ccn(Cc3ccc(N(C)C)cn3)n2)cc1 [Example 107, N-[1-(5-Dimethylamino-pyridin-2-ylmethyl)-1H-pyrazol-3-yl]-2-(4-isopropyl-phenyl)-acetamide] | 338
5 | CCN(CC)c1ccc(CC(=O)Nc2ccn(Cc3ccc(C#N)cc3)n2)cn1 [Example 189, N-[1-(4-Cyano-benzyl)-1H-pyrazol-3-yl]-2-(6-diethylamino-pyridin-3-yl)-acetamide] | 88
6 | Cn1ccc2cc(CC(=O)Nc3ccn(Cc4ccc(F)cc4)n3)cnc21 [Example 213, N-[1-(4-Fluoro-benzyl)-1H-pyrazol-3-yl]-2-(1-methyl-1H-pyrrolo[2,3-b]pyridin-5-yl)-acetamide] | 31
7 | Cn1ccc2cc(CC(=O)Nc3ccn(Cc4ccc(C#N)cn4)n3)ccc21 [Example 301, N-[1-(5-Cyano-pyridin-2-ylmethyl)-1H-pyrazol-3-yl]-2-(1-methyl-1H-indol-5-yl)-acetamide] | 71
8 | COc1ccc(Cn2ccc(NC(=O)Cc3ccc(N(C)C)cc3)n2)nc1 [Example 44, 2-(4-Dimethylamino-phenyl)-N-[1-(5-methoxy-pyridin-2-ylmethyl)-1H-pyrazol-3-yl]-acetamide] | 372
9 | CC(C)c1ccc(CC(=O)Nc2ccn(Cc3ccc(C4CC4)cn3)n2)cc1 [Example 96, N-[1-(5-Cyclopropyl-pyridin-2-ylmethyl)-1H-pyrazol-3-yl]-2-(4-isopropyl-phenyl)-acetamide] | 53
10 | CC(C)c1ccc(CC(=O)Nc2ccn(Cc3ccc(N4CCCC4)cn3)n2)cc1 [Example 395, 2-(4-Isopropyl-phenyl)-N-[1-(5-pyrrolidin-1-yl-pyridin-2-ylmethyl)-1H-pyrazol-3-yl]-acetamide] | 315
11 | CC(C)c1ccc(CC(=O)Nc2ccn(Cc3ccc(Br)cn3)n2)cc1 [Example 94, N-[1-(5-Bromo-pyridin-2-ylmethyl)-1H-pyrazol-3-yl]-2-(4-isopropyl-phenyl)-acetamide] | 8.3
12 | Cc1cc(CC(=O)Nc2ccn(Cc3ccc(C#N)cn3)n2)cnc1OCC(F)(F)F [Example 417, N-[1-(5-Cyano-pyridin-2-ylmethyl)-1H-pyrazol-3-yl]-2-[5-methyl-6-(2,2,2-trifluoro-ethoxy)-pyridin-3-yl]-acetamide] | 37
13 | O=C(Cc1ccc(N2CCCC2)nc1)Nc1ccn(Cc2ccc(F)cc2)n1 [Example 177, N-[1-(4-Fluoro-benzyl)-1H-pyrazol-3-yl]-2-(6-pyrrolidin-1-yl-pyridin-3-yl)-acetamide] | 18
14 | CCN(C)c1ccc(CC(=O)Nc2ccn(Cc3ccc(F)cc3)n2)cn1 [Example 48, 2-[6-(Ethyl-methyl-amino)-pyridin-3-yl]-N-[1-(4-fluoro-benzyl)-1H-pyrazol-3-yl]-acetamide] | 138
15 | Cc1cc(CC(=O)Nc2ccn(Cc3ccc(F)c(C#N)n3)n2)cnc1OCC(F)(F)F [Example 418, N-[1-(6-Cyano-5-fluoro-pyridin-2-ylmethyl)-1H-pyrazol-3-yl]-2-[5-methyl-6-(2,2,2-trifluoro-ethoxy)-pyridin-3-yl]-acetamide] | 94

Further lines, results first:

Row | IC50 [nM] | Structure (SMILES)
16 | 80 | N#Cc1c(F)cc(Cn2ccc(NC(=O)Cc3ccc(OCC4(F)COC4)cc3)n2)cc1F [Example 361, N-[1-(4-Cyano-3,5-difluoro-benzyl)-1H-pyrazol-3-yl]-2-[4-(3-fluoro-oxetan-3-ylmethoxy)-phenyl]-acetamide]
17 | 68 | N#Cc1ccc(Cn2ccc(NC(=O)Cc3ccc(N4CCC(F)(F)C4)nc3)n2)cc1 [Example 121, N-[1-(4-Cyano-benzyl)-1H-pyrazol-3-yl]-2-[6-(3,3-difluoro-pyrrolidin-1-yl)-pyridin-3-yl]-acetamide]
18 | 332 | CC(C)c1ccc(CC(=O)Nc2ccn(Cc3ccc(C#N)c(OCC(F)(F)F)n3)n2)cc1 [Example 117, N-{1-[5-Cyano-6-(2,2,2-trifluoro-ethoxy)-pyridin-2-ylmethyl]-1H-pyrazol-3-yl}-2-(4-isopropyl-phenyl)-acetamide]
19 | 39 | O=C(Cc1ccc(OCC2COC2)cc1)Nc1ccn(Cc2ccc(F)c(F)c2)n1 [Example 242, N-[1-(3,4-Difluoro-benzyl)-1H-pyrazol-3-yl]-2-[4-(oxetan-3-ylmethoxy)-phenyl]-acetamide]
20 | 8.5 | N#Cc1cc(Cn2ccc(NC(=O)Cc3cnc(N4CCCC4)c(F)c3)n2)ccc1F [Example 340, N-[1-(3-Cyano-4-fluoro-benzyl)-1H-pyrazol-3-yl]-2-(5-fluoro-6-pyrrolidin-1-yl-pyridin-3-yl)-acetamide]
21 | 52 | Cn1ncc2cc(CC(=O)Nc3ccn(Cc4cc(F)c(C#N)c(F)c4)n3)ccc21 [Example 344, N-[1-(4-Cyano-3,5-difluoro-benzyl)-1H-pyrazol-3-yl]-2-(1-methyl-1H-indazol-5-yl)-acetamide]
22 | 136 | COc1ccc(Cn2ccc(NC(=O)Cc3ccc(N4CC(F)(F)C4)nc3)n2)cc1 [Example 146, 2-[6-(3,3-Difluoro-azetidin-1-yl)-pyridin-3-yl]-N-[1-(4-methoxy-benzyl)-1H-pyrazol-3-yl]-acetamide]
23 | 11 | N#Cc1ccc(Cn2ccc(NC(=O)Cc3ccc(N4CC(F)(F)C4)cc3)n2)cc1 [Example 50, N-[1-(4-Cyano-benzyl)-1H-pyrazol-3-yl]-2-[4-(3,3-difluoro-azetidin-1-yl)-phenyl]-acetamide]
24 | 54 | Cc1ccc(CC(=O)Nc2ccn(Cc3ccc(C#N)cn3)n2)cc1OCC(F)(F)F [Example 381, N-[1-(5-Cyano-pyridin-2-ylmethyl)-1H-pyrazol-3-yl]-2-[4-methyl-3-(2,2,2-trifluoro-ethoxy)-phenyl]-acetamide]
25 | 117 | CC1(COc2ccc(CC(=O)Nc3ccn(Cc4cc(F)c(C#N)c(F)c4)n3)cc2)COC1 [Example 362, N-[1-(4-Cyano-3,5-difluoro-benzyl)-1H-pyrazol-3-yl]-2-[4-(3-methyl-oxetan-3-ylmethoxy)-phenyl]-acetamide]
26 | 44 | N#Cc1ccc(Cn2ccc(NC(=O)Cc3ccc(OCC4CC4)c(OC(F)(F)F)c3)n2)nc1 [Example 397, N-[1-(5-Cyano-pyridin-2-ylmethyl)-1H-pyrazol-3-yl]-2-(4-cyclopropylmethoxy-3-trifluoromethoxy-phenyl)-acetamide]
27 | 99 | O=C(Cc1cnc(OCC(F)(F)F)c(F)c1)Nc1ccn(Cc2ccc(F)c(F)c2)n1 [Example 95, N-[1-(3,4-Difluoro-benzyl)-1H-pyrazol-3-yl]-2-[5-fluoro-6-(2,2,2-trifluoro-ethoxy)-pyridin-3-yl]-acetamide]
28 | 10 | N#Cc1cc(Cn2ccc(NC(=O)Cc3ccc(C4CC(F)(F)C4)cc3)n2)ccc1F [Example 312, N-[1-(3-Cyano-4-fluoro-benzyl)-1H-pyrazol-3-yl]-2-[4-(3,3-difluoro-cyclobutyl)-phenyl]-acetamide]
29 | 3070 | CC1(COc2ccc(CC(=O)Nc3ccn(Cc4ccc(C#N)cn4)n3)cc2)COC1 [Example 284, N-[1-(5-Cyano-pyridin-2-ylmethyl)-1H-pyrazol-3-yl]-2-[4-(3-methyl-oxetan-3-ylmethoxy)-phenyl]-acetamide]
30 | 114 | N#Cc1ccc(Cn2ccc(NC(=O)Cc3ccc(OCC(F)(F)F)c(F)c3)n2)nc1 [Example 382, N-[1-(5-Cyano-pyridin-2-ylmethyl)-1H-pyrazol-3-yl]-2-[3-fluoro-4-(2,2,2-trifluoro-ethoxy)-phenyl]-acetamide]
31 | 5.4 | CC(C)(C)c1ccc(CC(=O)Nc2ccn(Cc3ccc(C#N)c(F)c3)n2)cc1 [Example 264, 2-(4-tert-Butyl-phenyl)-N-[1-(4-cyano-3-fluoro-benzyl)-1H-pyrazol-3-yl]-acetamide]
32 | 11 | O=C(Cc1ccc(CC2CC2)cc1)Nc1ccn(Cc2ccc(F)cc2)n1 [Example 158, 2-(4-Cyclopropylmethyl-phenyl)-N-[1-(4-fluoro-benzyl)-1H-pyrazol-3-yl]-acetamide]
33 | 6.1 | N#Cc1ccc(Cn2ccc(NC(=O)Cc3ccc(N4CCC(F)(F)C4)cc3)n2)cc1 [Example 76, N-[1-(4-Cyano-benzyl)-1H-pyrazol-3-yl]-2-[4-(3,3-difluoro-pyrrolidin-1-yl)-phenyl]-acetamide]
34 | 35 | Cn1ncc2cc(CC(=O)Nc3ccn(Cc4ccc(F)c(C#N)c4)n3)ccc21 [Example 268, N-[1-(3-Cyano-4-fluoro-benzyl)-1H-pyrazol-3-yl]-2-(1-methyl-1H-indazol-5-yl)-acetamide]
35 | 69 | CC(C)c1ccc(CC(=O)Nc2ccn(Cc3cc(C(F)F)c(C#N)cn3)n2)cc1 [Example 386, N-[1-(5-cyano-4-difluoromethyl-pyridin-2-ylmethyl)-1H-pyrazol-3-yl]-2-(4-isopropyl-phenyl)-acetamide]
36 | 45 | N#Cc1cc(Cn2ccc(NC(=O)Cc3ccc(OCC4CC(F)(F)C4)cc3)n2)ccc1F [Example 313, N-[1-(3-Cyano-4-fluoro-benzyl)-1H-pyrazol-3-yl]-2-[4-(3,3-difluoro-cyclobutylmethoxy)-phenyl]-acetamide]
37 | 52 | Cn1ncc2cc(CC(=O)Nc3ccn(Cc4ccc(C#N)c(F)c4)n3)ccc21 [Example 255, N-[1-(4-Cyano-3-fluoro-benzyl)-1H-pyrazol-3-yl]-2-(1-methyl-1H-indazol-5-yl)-acetamide]
